This note sets out measurements from ChEMBL document CHEMBL4715890, “Flavonoids from Sophora alopecuroides L. improve palmitate-induced insulin resistance by inhibiting PTP1B activity in vitro” (Bioorg Med Chem Lett, 2021).

For series [1], the system named is C2C12. As to the kind of experiment: Induction of glucose uptake in mouse C2C12 cells at 1 ug/ml in presence of insulin. The series is classed as functional, cell-based. Particulars: dose 1.0 µg/ml.
In series [2] the test system is C2C12. Nature of the series: Induction of glucose uptake in mouse C2C12 cells at 1 ug/ml. In kind it is functional, cell-based.
For series [3], the system named is C2C12. As to the kind of experiment: Cytotoxicity against mouse C2C12 cells assessed as reduction in cell viability by MTT assay. The series is classed as cell-based. The following applies: for IC50: Mus musculus, C2C12; for IC10: mouse, c2c12. A general note: Formazan colour is commonly taken as a measure of viable cells.
The target of series [4] is T1, Tyrosine-protein phosphatase non-receptor type 1 (Homo sapiens) (UniProt P18031).
T1 sequence (whole entry): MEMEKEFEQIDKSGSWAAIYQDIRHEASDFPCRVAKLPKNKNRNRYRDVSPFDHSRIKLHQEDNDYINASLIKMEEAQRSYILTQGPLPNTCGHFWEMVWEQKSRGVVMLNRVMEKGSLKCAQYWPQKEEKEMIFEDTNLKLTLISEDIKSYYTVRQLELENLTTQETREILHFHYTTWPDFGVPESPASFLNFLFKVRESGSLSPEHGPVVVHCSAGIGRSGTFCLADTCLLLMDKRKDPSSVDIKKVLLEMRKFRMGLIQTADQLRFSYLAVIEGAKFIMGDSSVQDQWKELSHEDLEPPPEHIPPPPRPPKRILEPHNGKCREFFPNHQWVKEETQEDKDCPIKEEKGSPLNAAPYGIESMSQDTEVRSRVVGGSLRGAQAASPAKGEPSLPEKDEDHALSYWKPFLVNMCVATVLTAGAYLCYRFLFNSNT
Nature of the series: Inhibition of PTP1B (unknown origin) at 0.1 ug/ml relative to control. Particulars: dose 0.1 µg/ml.

Series [5] addresses T2, Tyrosine-protein phosphatase non-receptor type 1 (Mus musculus) (UniProt P35821).
T2 sequence (whole entry): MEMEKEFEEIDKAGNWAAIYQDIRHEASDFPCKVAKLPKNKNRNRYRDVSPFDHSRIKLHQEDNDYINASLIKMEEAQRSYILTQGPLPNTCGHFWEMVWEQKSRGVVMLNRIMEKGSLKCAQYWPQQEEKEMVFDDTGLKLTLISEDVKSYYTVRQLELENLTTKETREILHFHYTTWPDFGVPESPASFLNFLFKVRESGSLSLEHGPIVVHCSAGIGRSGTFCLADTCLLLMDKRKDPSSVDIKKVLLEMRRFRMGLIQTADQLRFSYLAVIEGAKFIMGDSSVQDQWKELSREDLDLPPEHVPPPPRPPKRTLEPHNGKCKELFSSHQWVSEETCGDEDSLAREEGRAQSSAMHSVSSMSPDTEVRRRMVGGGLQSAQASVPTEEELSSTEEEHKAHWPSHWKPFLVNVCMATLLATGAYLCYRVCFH
As to the kind of experiment: Inhibition of PTP1B in mouse PA-induced insulin-resistance C2C12 cells assessed as increase in glucose consumption at 1 ug/ml in presence of insulin after 16 hrs. The series is classed as cell-based. Particulars: dose 1.0 µg/ml.

Each structure is given as a SMILES string. Values after ≈ are worked out from the molar mass of the structure shown. Active and inactive are the calls of the source. The rule behind the calls is not given here.

Regarding `O=c1cc(-c2ccc(O)cc2)oc2cc(O)cc(O)c12` [APIGENIN], in the series with C2C12 [1], the result was Active. Moreover, the outcome in the series on C2C12 [2] was Active. Besides, in the series on C2C12 [3], the 50% inhibitory concentration (IC50) (in general, the concentration at which inhibition is half-maximal) worked out at 26.6 µg/mL (≈ 98.4 µM) and the IC10 (usually the concentration needed for an effect of 10%) was 4.96 µg/mL (≈ 18.4 µM).
On to `O=C(/C=C/c1ccc(O)cc1)c1ccc(O)cc1O` [ISOLIQUIRITIGENIN], for which the result in the series on C2C12 [1] and in the series with C2C12 [2] was Active. Further, the IC50 in the series on C2C12 [3] was 26.3 µg/mL (≈ 103 µM). Further, in the series on C2C12 [3], the concentration for an effect of 10% (IC10) was found to be 7.43 µg/mL (≈ 29 µM).
On to `O=C(/C=C/c1ccc(O)c(O)c1)OC[C@H]1O[C@@H](Oc2ccc3c(=O)c(-c4ccc(O)cc4)coc3c2)[C@H](O)[C@@H](O)[C@@H]1O`, for which the result in the series with C2C12 [1] was Active. For the same compound, the result with C2C12 [2] was Active. For the same compound, in the series with C2C12 [3], the IC50 amounted to 31.2 µg/mL (≈ 54 µM) and the IC10 stood at 8.81 µg/mL (≈ 15.2 µM). The inhibition – broadly, the percentage by which the read-out fell short of the control – in series [4] is 81.6%. Further, in series [5], the Glucose consumption increase entry was “Active”.
Turning to `COc1ccc(-c2cc(=O)c3c(O)cc(O[C@@H]4O[C@H](CO[C@@H]5O[C@@H](C)[C@H](O)[C@@H](O)[C@H]5O)[C@@H](O)[C@H](O)[C@H]4O)cc3o2)cc1O` [DIOSMIN], in the series with C2C12 [3], the IC50 was determined as 20 µg/mL (≈ 32.8 µM) and the concentration for an effect of 10% (IC10) is 5.14 µg/mL (≈ 8.45 µM).
On to `O=c1cc(-c2ccc(O[C@@H]3O[C@H](CO)[C@@H](O)[C@H](O)[C@H]3O)c(O)c2)oc2cc(O)ccc12`, for which the result in the series on C2C12 [1] was Active. Also, the result in the series on C2C12 [2] was Active. Moreover, in the series on C2C12 [3], the IC50 stood at 29 µg/mL (≈ 67.1 µM) and the IC10 stood at 5.85 µg/mL (≈ 13.5 µM). The inhibition in series [4] was 68.9%. Moreover, in series [5], the Glucose consumption increase result was “Active”.
For the compound `O=C(/C=C/c1ccccc1)c1ccc(O)cc1O` [2',4'-DIHYDROXYCHALCONE], in the series on C2C12 [1], the result was Active. Also, the result with C2C12 [2] was Active. Besides, in the series with C2C12 [3], the IC50 came to 32.3 µg/mL (≈ 134 µM) and the IC10 stood at 6.14 µg/mL (≈ 25.6 µM).
For `O=c1c(-c2ccc3c(c2)OCO3)coc2cc(O)ccc12` [PSEUDOBAPTOGENIN], the outcome in the series on C2C12 [1] was Active. Besides, the outcome in the series on C2C12 [2] was Active. Also, in the series with C2C12 [3], the IC50 was 12.1 µg/mL (≈ 42.8 µM) and the concentration for an effect of 10% (IC10) was 3.49 µg/mL (≈ 12.4 µM). Further, the Glucose consumption increase entry in series [5] is “Active”.
For the compound `COc1cc(O)c2c(=O)c(-c3ccc(O)cc3)coc2c1` [PRUNETIN], the outcome in the series with C2C12 [1] and in the series with C2C12 [2] was Active. The IC50 with C2C12 [3] is 23.2 µg/mL (≈ 81.8 µM). In addition, in the series on C2C12 [3], the concentration for an effect of 10% (IC10) was found to be 7.19 µg/mL (≈ 25.3 µM). The Glucose consumption increase result in series [5] was “Active”.
`O=C(/C=C/c1ccc(O)c(O)c1)c1ccc(O[C@@H]2O[C@H](CO)[C@@H](O)[C@H](O)[C@H]2O)cc1O`: in the series on C2C12 [3], the half-maximal inhibitory concentration (IC50) came to 20.8 µg/mL (≈ 47.9 µM) and the concentration for an effect of 10% (IC10) stood at 4.39 µg/mL (≈ 10.1 µM).
For `O=c1c(O)c(-c2ccc(O)c(O)c2)oc2cc(O)cc(O)c12` [QUERCETIN], in that order: 30.8 µg/mL (≈ 102 µM) and 9.23 µg/mL (≈ 30.5 µM).
Consider `O=c1c(-c2ccc(O)cc2)coc2cc(O[C@@H]3O[C@H](CO[C@@H]4OC[C@@H](O)[C@H](O)[C@H]4O)[C@@H](O)[C@H](O)[C@H]3O)cc(O)c12`, for which, in the series with C2C12 [1], the result was Active. In the series with C2C12 [2], the result was Active. In addition, in the series with C2C12 [3], the concentration for half-maximal inhibition (IC50) was 34.2 µg/mL (≈ 60.5 µM) and the IC10 came out at 6.07 µg/mL (≈ 10.8 µM). The inhibition in series [4] is 88.8%. Moreover, the Glucose consumption increase result in series [5] is “Active”.
As to `COc1cc(/C=C/C(=O)OC[C@H]2O[C@@H](Oc3ccc4c(=O)c(-c5ccc(O)c(O)c5)coc4c3)[C@H](O)[C@@H](O)[C@@H]2O)ccc1O`, the result in the series on C2C12 [1] was Active. In the series on C2C12 [2], the result was Active. Moreover, in the series with C2C12 [3], the IC50 was determined as 24.3 µg/mL (≈ 40 µM) and the IC10 was found to be 7.36 µg/mL (≈ 12.1 µM). The compound also displayed an inhibition in series [4] of 95.2%. Besides, the Glucose consumption increase entry in series [5] was “Active”.
As to `O=c1c(-c2ccc3c(c2)OCO3)coc2cc(O[C@@H]3O[C@H](CO)[C@@H](O)[C@H](O)[C@H]3O)ccc12`, in the series on C2C12 [3], the concentration for half-maximal inhibition (IC50) turned out to be 13.5 µg/mL (≈ 30.3 µM) and the 10% effect concentration (IC10) was determined as 4.18 µg/mL (≈ 9.41 µM).
With `O=C(/C=C/c1ccc(O)c(O)c1)c1ccc(O)cc1O` [BUTEIN], in the series with C2C12 [3], the IC50 turned out to be 19 µg/mL (≈ 69.8 µM) and the 10% effect concentration (IC10) stood at 3.99 µg/mL (≈ 14.7 µM).
For `O=c1cc(-c2ccc(O)c(O)c2)oc2cc(O[C@@H]3O[C@H](CO)[C@@H](O)[C@H](O)[C@H]3O)ccc12`, in the series on C2C12 [1], the result was Active. Further, the result with C2C12 [2] was Active. Besides, in the series on C2C12 [3], the IC50 was found to be 40 µg/mL (≈ 92.6 µM) and the IC10 is 10.07 µg/mL (≈ 23.3 µM). In series [4], this compound returned an inhibition of 68.9%. Moreover, in series [5], the Glucose consumption increase result was “Active”.
As to `COc1cc(O)c2c(=O)c(-c3ccc(O)c(OC)c3)coc2c1`, the result in the series on C2C12 [1] was Active. Further, the outcome in the series on C2C12 [2] was Active. Moreover, in the series with C2C12 [3], the IC50 worked out at 32.5 µg/mL (≈ 103 µM) and the concentration for an effect of 10% (IC10) amounted to 6.93 µg/mL (≈ 22 µM). Besides, the inhibition in series [4] stood at 70.1%. Further, the Glucose consumption increase result in series [5] is “Active”.
